Common to all, as to format: cell-based
Experiment [1] addresses T1, hP2X2R (human P2X2 receptor) (Homo sapiens, UniProt Q9UBL9, R130A).
T1 construct: gene P2RX2; hP2X2-L
T1 sequence (Q9UBL9 1-471 R130A): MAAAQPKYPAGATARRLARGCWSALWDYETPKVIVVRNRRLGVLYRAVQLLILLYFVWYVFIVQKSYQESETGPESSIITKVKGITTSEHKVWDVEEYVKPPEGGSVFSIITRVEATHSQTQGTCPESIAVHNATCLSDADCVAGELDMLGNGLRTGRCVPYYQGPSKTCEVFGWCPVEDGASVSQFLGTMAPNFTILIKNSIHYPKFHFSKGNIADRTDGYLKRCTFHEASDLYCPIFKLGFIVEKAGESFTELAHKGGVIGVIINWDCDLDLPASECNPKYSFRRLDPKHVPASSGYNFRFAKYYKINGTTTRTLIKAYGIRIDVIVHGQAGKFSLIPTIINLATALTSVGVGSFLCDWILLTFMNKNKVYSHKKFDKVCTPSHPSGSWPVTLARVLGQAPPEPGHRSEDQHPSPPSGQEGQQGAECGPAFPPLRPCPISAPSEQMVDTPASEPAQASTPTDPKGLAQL
The experiment can be described thus: whole-cell patch clamp in HEK293 cells, EDTA solution. A general note: In patch-clamp work, channel activity is measured electrically.

The target of experiment [2] is T2, hP2X2R (human P2X2 receptor) (Homo sapiens, UniProt Q9UBL9, R130E).
T2 construct: gene P2RX2; hP2X2-L
T2 sequence (Q9UBL9 1-471 R130E): T1 sequence (Q9UBL9 1-471 R130A) with A130E
The description is as above.

For experiment [3], the target named is T3, hP2X2R (human P2X2 receptor) (Homo sapiens, UniProt Q9UBL9).
T3 construct: gene P2RX2; hP2X2-L (Q9UBL9-1) with ATP4−; hP2X2-S (Q9UBL9-2) with Mg-ATP2−; homotrimer in MSP1E3D1 lipid nanodiscs
T3 sequence (Q9UBL9 1-404 isoform Q9UBL9-2): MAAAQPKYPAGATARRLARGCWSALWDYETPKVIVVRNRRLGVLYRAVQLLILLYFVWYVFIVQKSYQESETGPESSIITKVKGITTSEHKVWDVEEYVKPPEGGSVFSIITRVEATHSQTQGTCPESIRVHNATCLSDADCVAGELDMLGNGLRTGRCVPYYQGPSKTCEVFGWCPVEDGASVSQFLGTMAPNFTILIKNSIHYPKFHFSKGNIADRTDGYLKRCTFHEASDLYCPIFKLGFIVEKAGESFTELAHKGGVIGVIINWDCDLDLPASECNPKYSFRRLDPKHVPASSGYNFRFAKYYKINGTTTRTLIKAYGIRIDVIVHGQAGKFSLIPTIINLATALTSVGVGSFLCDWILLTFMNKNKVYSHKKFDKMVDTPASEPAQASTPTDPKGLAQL
The experiment can be described thus: cryo-EM structure in nanodiscs; whole-cell patch clamp EC50 in EDTA ([…] with divalent cations).

Experiment [4] addresses T4, hP2X2R (human P2X2 receptor) (Homo sapiens, UniProt Q9UBL9).
T4 construct: gene P2RX2; hP2X2-L
T4 sequence (Q9UBL9 1-471): T1 sequence (Q9UBL9 1-471 R130A) with A130R

Experiment [5] addresses T1, hP2X2R (human P2X2 receptor).

Where a chain is given by its changes, count along the chain named.

Regarding `Nc1ncnc2c1ncn2[C@@H]1O[C@H](COP(=O)(O)OP(=O)(O)OP(=O)(O)O)[C@@H](O)[C@H]1O` [ATP], the half-maximal effective concentration (EC50) (as a rule, the concentration needed to bring the measured effect to its halfway point) worked out at 3.7 ± 0.9 µM in experiment [1], 4 ± 0.9 µM in experiment [2] and 1.4 ± 0.4 µM in experiment [3].

For `Nc1ncnc2c1ncn2[C@@H]1O[C@H](COP(=O)(O)CP(=O)(O)OP(=O)(O)O)[C@@H](O)[C@H]1O` [α,β-Methylene-ATP], the “whole-cell patch clamp in HEK293 cells (weak activation)” value in experiment [4] and in experiment [5] was “α,β-Methylene-ATP could only weakly activate either WT hP2X2 or the R130A mutant” in each case.

Values taken from article doi:10.64898/2025.12.04.692396, “Mechanisms of ligand recognition and channel opening for P2X2 receptors in lipid nanodiscs” (bioRxiv, 2025).
